# From US9512072B2, “Biodegradable computed tomography contrast agents” (Case Western Reserve University, priority 2013, dated 2016)
# Test system: BALB/c mice
# Assay: In vivo blood pool CT imaging on micro-CT scanner
# Parameters: species or system mouse
# Conditions: 350 mg-I/kg i.v.
# Description: The polymeric contrast agents and the control contrast agent, iodixanol, were evaluated with BALB/c mice (18-22 g body weight, 6 mice per agent). All the mice were scanned on the same machine as the in vitro detection. The images were obtained at an x-ray voltage of 80 kVp, an anode current of 500 μA and an exposure time of 200 ms for every rotational steps (total rotation degree is 360 and rotation steps are 180). The field of view was […]. Images were reconstructed in a 1024 pixel×1024 pixel grid with a pixel size of 18 μm×18 μm. […]
# CT values are expressed in Hounsfield Units (HU) and were obtained per organ by drawing volumetric regions of interest (RIOs). […] The average HU values and the standard deviation were calculated from the data with 3 ROIs per organ. The CT data was analyzed to determine the contrast enhancement of different agents at various time points post-injection. In vivo CT values of the regions of interest, such as heart, blood, liver and bladder, were measured to study the dynamic enhancement of different organs. […]
# The effectiveness of the iodinated polydisulfides for in vivo contrast enhanced CT imaging was assessed in BALB/c mice (18-22 g body weight, 6 mice per agent) on a micro-CT scanner with iodixanol as a control agent. […]
structure (smiles),measurement,setting,value
CC(=O)N(CC(O)CN(C(C)=O)c1c(I)c(C(=O)NCC(O)CO)c(I)c(C(=O)NCC(O)CO)c1I)c1c(I)c(C(=O)NCC(O)CO)c(I)c(C(=O)NCC(O)CO)c1I (centres unmarked) [iodixanol],vascular enhancement and delineation,10 min after injection,did not produce any enhancement
same,blood signal at its peak,pre-injection 27±30 HU,56±26 HU
